Counter-ions that a name gives are not always drawn.
What follows are molecules tested against T1, wild type human RORγt LBD (Homo sapiens, UniProt P51449) (assay: RORγt (LBD) Reporter Assay (GAL4-luciferase, HEK293T cells)). Conditions: 6 µM compound concentration; 6 µM.
T1 construct: expressed in transfected cells; host or cells: HEK293T
T1 sequence (P51449 258-518): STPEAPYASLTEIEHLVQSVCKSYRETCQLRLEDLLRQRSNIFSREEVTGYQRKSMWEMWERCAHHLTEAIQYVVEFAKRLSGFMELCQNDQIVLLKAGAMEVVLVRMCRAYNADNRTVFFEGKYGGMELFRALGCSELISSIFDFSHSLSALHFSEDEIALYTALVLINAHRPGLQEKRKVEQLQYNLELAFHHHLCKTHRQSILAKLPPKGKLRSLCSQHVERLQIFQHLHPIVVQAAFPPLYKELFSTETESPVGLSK
Format: cell-based

For `COc1nc2ccc(C(O)(c3ccccn3)c3cncn3C)cc2c(Cl)c1Cc1ccc(-n2cccn2)cc1` (single isomer, unassigned) [Example 64c, (3-(4-(1H-Pyrazol-1-yl)benzyl)-4-chloro-2-methoxyquinolin-6-yl)(1-methyl-1H-imidazol-5-yl)(pyridin-2-yl)methanol], which “RORγt (LBD) Reporter Assay, % inhibition @ 6 µM” value (“RORγt … % inhibition @ 6 µM” below) is on record?
Its value is 107%.

How did the “RORγt … % inhibition @ 6 µM” value turn out when `COc1nc2ccc(C(O)(c3ccc(C)nc3C)c3cnnn3C)cc2c(Cl)c1Cc1ccc(C(F)(F)F)nc1` (single isomer, unassigned) [Example 40c, (4-Chloro-2-methoxy-3-((6-(trifluoromethyl)pyridin-3-yl)methyl)quinolin-6-yl)(2,6-dimethylpyridin-3-yl)(1-methyl-1H-1,2,3-triazol-5-yl)methanol] was run?
The value was 94%.

Same assay, conditions: 6 µM compound concentration; HEK293T cells; 6 µM

How did the “RORγt … % inhibition @ 6 µM” value turn out when `COc1nc2ccc(C(O)(c3oc(C)nc3C)c3cnnn3C)cc2c(Cl)c1Cc1ccc(C(F)(F)F)cc1` (single isomer, unassigned) [Example 156c, (4-chloro-2-methoxy-3-(4-(trifluoromethyl)benzyl)quinolin-6-yl)(2,4-dimethylozazol-5-yl)(1-methyl-1H-1,2,3-triazol-5-yl)methanol] was run?
Its value is 99%.

With `COc1nc2ccc(C(N)(c3ccc(C(F)(F)F)nc3)c3cncn3C)cc2c(Cl)c1Cc1ccccc1` (single isomer, unassigned) [Example 120c, (3-Benzyl-4-chloro-2-methoxyquinolin-6-yl)(1-methyl-1H-imidazol-5-yl)(6-(trifluoromethyl)pyridin-3-yl)methanamine•TFA] as the molecule, how does the “RORγt … % inhibition @ 6 µM” value read?
Its value is 66%.

With `COc1nc2ccc(C(c3ccc(C)nc3C)(c3cnnn3C)N(C)C)cc2c(Cl)c1Cc1ccc(C(F)(F)F)cc1` (single isomer, unassigned) [Example 122c, 1-(4-Chloro-2-methoxy-3-(4-(trifluoromethyl)benzyl)quinolin-6-yl)-1-(2,6-dimethylpyridin-3-yl)-N,N-dimethyl-1-(1-methyl-1H-1,2,3-triazol-5-yl)methanamine•TFA] as the molecule, how does the “RORγt … % inhibition @ 6 µM” value read?
The value was 99%.

Which “RORγt … % inhibition @ 6 µM” value does the source give for `COc1nc2ccc(C(N)(c3ccc(C(F)(F)F)nc3)c3cncn3C)cc2c(Cl)c1Cc1ccccc1` (single isomer, unassigned) [Example 120b, (3-Benzyl-4-chloro-2-methoxyquinolin-6-yl)(1-methyl-1H-imidazol-5-yl)(6-(trifluoromethyl)pyridin-3-yl)methanamine•TFA] here?
Its value is 27%.

How did the “RORγt … % inhibition @ 6 µM” value turn out when `CNC(c1ccc2nc(OC)c(Cc3ccc(C(F)(F)F)cc3)c(Cl)c2c1)(c1ccc(C)nc1C)c1cnnn1C` (single isomer, unassigned) [Example 121c, 1-(4-Chloro-2-methoxy-3-(4-(trifluoromethyl)benzyl)quinolin-6-yl)-1-(2,6-dimethylpyridin-3-yl)-N-methyl-1-(1-methyl-1H-1,2,3-triazol-5-yl)methanamine•TFA] was run?
Its value is 101%.

`CC(=O)N1CCC(C(O)(c2ccc3nc(C(F)(F)F)c(Cc4ccccc4)c(Cl)c3c2)c2cncn2C)CC1` (single isomer, unassigned) [Example 115c, 1-(4-((3-Benzyl-4-chloro-2-(trifluoromethyl)quinolin-6-yl)(hydroxy)(1-methyl-1H-imidazol-5-yl)methyl)piperidin-1-yl)ethanone•TFA] was tested. Which “RORγt … % inhibition @ 6 µM” value did it give?
Its value is 70%.

How did the “RORγt … % inhibition @ 6 µM” value turn out when `Cn1cncc1C(O)(c1ccc(C(F)(F)F)nc1)c1ccc2nc(-n3cccn3)c(Cc3ccccc3)c(C#N)c2c1` (single isomer, unassigned) [Example 114c, 3-Benzyl-6-(hydroxy(1-methyl-1H-imidazol-5-yl)(6-(trifluoromethyl)pyridin-3-yl)methyl)-2-(1H-pyrazol-1-yl)quinoline-4-carbonitrile•TFA] was run?
The value was 71%.

Same assay, conditions: HEK293T cells

`Cn1cncc1C(O)(c1ccc(Cl)cc1)c1ccc2nc(Cl)c(Cc3ccc(C(F)(F)F)cc3)c(Cl)c2c1` (stereo not drawn) [Example 155, (4-chlorophenyl)(2,4-dichloro-3-(4-(trifluoromethyl)benzyl)quinolin-6-yl)(1-methyl-1H-imidazol-5-yl)methanol•TFA] was tested. Which IC50 did it give?
Its IC50 is 160 nM.

With `CCN(CC)c1nc2ccc(C(O)(c3ccc(Cl)cc3)c3cncn3C)cc2c(C#N)c1Cc1ccc(-n2cccn2)cc1` (single isomer, unassigned) [Example 154b, 3-(4-(1H-pyrazol-1-yl)benzyl)-6-((4-chlorophenyl)(hydroxy)(1-methyl-1H-imidazol-5-yl)methyl)-2-(diethylamino)quinoline4-carbonitrile] as the molecule, how does the IC50 read?
The IC50 was 140 nM.

Same assay, conditions: HEK293T cells; value after the comma with ∼, > or < could not be included in the average

For `COc1nc2ccc(C(O)(c3cnnn3C)c3cnc(C)n3C)cc2c(C#N)c1Cc1ccc(C(F)(F)F)nc1` (stereo not drawn) [Example 44a, 6-((1,2-Dimethyl-1H-imidazol-5-yl)(hydroxy)(1-methyl-1H-1,2,3-triazol-5-yl)methyl)-2-methoxy-3-((6-(trifluoromethyl)pyridin-3-yl)methyl)quinoline-4-carbonitrile], which IC50 is on record?
Its IC50 is 7.6 nM.

Same assay, conditions: HEK-293T, read-out: RORγt (LBD) Reporter Assay, % inhibition @ 6 µM, 6 µM compound concentration

With `COc1nc2ccc(C(O)(c3cnnn3C)c3cnc(C)n3C)cc2c(C#N)c1Cc1ccc(C(F)(F)F)nc1` (stereo not drawn) [Example 44a, 6-((1,2-Dimethyl-1H-imidazol-5-yl)(hydroxy)(1-methyl-1H-1,2,3-triazol-5-yl)methyl)-2-methoxy-3-((6-(trifluoromethyl)pyridin-3-yl)methyl)quinoline-4-carbonitrile] as the molecule, how does the inhibition at 6 µM read?
The inhibition at 6 µM was 97%.

`COc1nc2ccc(C(O)(c3ccc(C)nc3C)c3cnnn3C)cc2c(Cl)c1Cc1ccc(C(F)(F)F)nc1` (stereo not drawn) [Example 40a, (4-Chloro-2-methoxy-3-((6-(trifluoromethyl)pyridin-3-yl)methyl)quinolin-6-yl)(2,6-dimethylpyridin-3-yl)(1-methyl-1H-1,2,3-triazol-5-yl)methanol] was tested. Which inhibition at 6 µM did it give?
Its inhibition at 6 µM is 98%.

For `COc1nc2ccc(C(O)(c3ccccn3)c3cncn3C)cc2c(Cl)c1Cc1ccc(-n2cccn2)cc1` (single isomer, unassigned) [Example 64b, (3-(4-(1H-Pyrazol-1-yl)benzyl)-4-chloro-2-methoxyquinolin-6-yl)(1-methyl-1H-imidazol-5-yl)(pyridin-2-yl)methanol], which inhibition at 6 µM is on record?
The inhibition at 6 µM was 103%.

With `COc1c(Cc2ccccc2)c(C(F)(F)F)nc2ccc(C(O)(c3ccc(Cl)cc3)c3cncn3C)cc12` (single isomer, unassigned) [Example 101b] as the molecule, how does the inhibition at 6 µM read?
Its inhibition at 6 µM is 62%.

Which inhibition at 6 µM does the source give for `COc1c(Cc2ccccc2)c(C(F)(F)F)nc2ccc(C(O)(c3ccc(Cl)cc3)c3cncn3C)cc12` (racemic) [Example 101a, (3-Benzyl-4-methoxy-2-(trifluoromethyl)quinolin-6-yl)(4-chlorophenyl)(1-methyl-1H-imidazol-5-yl)methanol•TFA] here?
The inhibition at 6 µM was 96%.

For `COc1c(Cc2ccccc2)c(C(F)(F)F)nc2ccc(C(O)(c3ccc(Cl)cc3)c3cncn3C)cc12` (single isomer, unassigned) [Example 101c], which inhibition at 6 µM is on record?
Its inhibition at 6 µM is 89%.

With `COc1nc2ccc(C(O)(c3cnnn3C)c3cnc(C)n3C)cc2c(Cl)c1Cc1ccc(F)cc1` (single isomer, unassigned) [Example 65b] as the molecule, how does the inhibition at 6 µM read?
The inhibition at 6 µM was 74%.

Which inhibition at 6 µM does the source give for `COc1nc2ccc(C(O)(c3ccc(C)nc3C)c3cnnn3C)cc2c(Cl)c1Cc1ccc(C(F)(F)F)nc1` (single isomer, unassigned) [Example 40b, (4-Chloro-2-methoxy-3-((6-(trifluoromethyl)pyridin-3-yl)methyl)quinolin-6-yl)(2,6-dimethylpyridin-3-yl)(1-methyl-1H-1,2,3-triazol-5-yl)methanol] here?
Its inhibition at 6 µM is 88%.

Same assay, conditions: HEK-293T, read-out: RORγt (LBD) Reporter Assay, % inhibition @ 6 µM, 6 µM compound concentration; HEK293T cells

How did the inhibition at 6 µM turn out when `Cn1cncc1C(O)(c1ccc(Cl)cc1)c1ccc2nc(Cl)c(Cc3ccc(C(F)(F)F)cc3)c(Cl)c2c1` (stereo not drawn) [Example 155, (4-chlorophenyl)(2,4-dichloro-3-(4-(trifluoromethyl)benzyl)quinolin-6-yl)(1-methyl-1H-imidazol-5-yl)methanol•TFA] was run?
The inhibition at 6 µM was 88%.

Which inhibition at 6 µM does the source give for `CNC(c1ccc2nc(OC)c(Cc3ccc(C(F)(F)F)cc3)c(Cl)c2c1)(c1ccc(C)nc1C)c1cnnn1C` (single isomer, unassigned) [Example 121b, 1-(4-Chloro-2-methoxy-3-(4-(trifluoromethyl)benzyl)quinolin-6-yl)-1-(2,6-dimethylpyridin-3-yl)-N-methyl-1-(1-methyl-1H-1,2,3-triazol-5-yl)methanamine•TFA] here?
The inhibition at 6 µM was 98%.

With `CC(=O)N1CCC(C(O)(c2ccc3nc(C(F)(F)F)c(Cc4ccccc4)c(Cl)c3c2)c2cncn2C)CC1` (single isomer, unassigned) [Example 115b, 1-(4-((3-Benzyl-4-chloro-2-(trifluoromethyl)quinolin-6-yl)(hydroxy)(1-methyl-1H-imidazol-5-yl)methyl)piperidin-1-yl)ethanone•TFA] as the molecule, how does the inhibition at 6 µM read?
Its inhibition at 6 µM is 67%.

For `COc1nc2ccc(C(O)(c3oc(C)nc3C)c3cnnn3C)cc2c(Cl)c1Cc1ccc(C(F)(F)F)cc1` (single isomer, unassigned) [Example 156b, (4-chloro-2-methoxy-3-(4-(trifluoromethyl)benzyl)quinolin-6-yl)(2,4-dimethylozazol-5-yl)(1-methyl-1H-1,2,3-triazol-5-yl)methanol], which inhibition at 6 µM is on record?
Its inhibition at 6 µM is 98%.

Which inhibition at 6 µM does the source give for `Cn1cncc1C(O)(c1ccc(C(F)(F)F)nc1)c1ccc2nc(-c3nccn3C)c(Cc3ccccc3)c(Cl)c2c1` (single isomer, unassigned) [Example 113c, (3-Benzyl-4-chloro-2-(1-methyl-1H-imidazol-2-yl)quinolin-6-yl)(1-methyl-1H-imidazol-5-yl)(6-(trifluoromethyl)pyridin-3-yl)methanol•TFA] here?
The inhibition at 6 µM was 90%.

Which inhibition at 6 µM does the source give for `COc1nc2ccc(C(c3ccc(C)nc3C)(c3cnnn3C)N(C)C)cc2c(Cl)c1Cc1ccc(C(F)(F)F)cc1` (single isomer, unassigned) [Example 122b, 1-(4-Chloro-2-methoxy-3-(4-(trifluoromethyl)benzyl)quinolin-6-yl)-1-(2,6-dimethylpyridin-3-yl)-N,N-dimethyl-1-(1-methyl-1H-1,2,3-triazol-5-yl)methanamine•TFA] here?
The inhibition at 6 µM was 98%.

`Cn1cncc1C(O)(c1ccc(C(F)(F)F)nc1)c1ccc2nc(-n3cccn3)c(Cc3ccccc3)c(C#N)c2c1` (single isomer, unassigned) [Example 114b, 3-Benzyl-6-(hydroxy(1-methyl-1H-imidazol-5-yl)(6-(trifluoromethyl)pyridin-3-yl)methyl)-2-(1H-pyrazol-1-yl)quinoline-4-carbonitrile•TFA] was tested. Which inhibition at 6 µM did it give?
Its inhibition at 6 µM is 86%.
